Measured values from patent US5808124A, “O- or S-substituted dihydronaphthalene derivatives having retinoid and/or retinoid antagonist-like biological activity” (Allergan, priority 1996, dated 1998).

System: ornithine decarboxylase (ODC)
Experiment: ODC assay: inhibition of TPA induction of ornithine decarboxylase (ODC) activity
Format: biochemical
Settings: for IC60: 60% inhibition in the ODC assay (TPA induction); for IC80: 80% inhibition in the ODC assay (TPA induction), printed in the IC60 column marked (IC80)
Description: A classic measure of retinoic acid activity involves measuring the effects of retinoic acid on ornithine decarboxylase. The original work on the correlation between retinoic acid and decrease in cell proliferation was done by Verma & Boutwell, Cancer Research, 1977, 37,2196-2201. That reference discloses that ornithine decarboxylase (ODC) activity increased precedent to polyamine biosynthesis. It has been established elsewhere that increases in polyamine synthesis can be correlated or associated with cellular proliferation. Thus, if ODC activity could be inhibited, cell hyperproliferation could be modulated. Although all cases for ODC activity increases are unknown, it is known that 12-0-tetradecanoylphorbol-13-acetate (TPA) induces ODC activity. Retinoic acid inhibits this induction of ODC activity by TPA. […] Activity of exemplary compounds of the present invention in the above-described ODC assay is disclosed in Table 1 which provides the IC60 concentration for the respective exemplary compound. ("IC60 " is that concentration of the test compound which causes 60% inhibition in the ODC assay. By analogy, "IC80, for example, is that concentration of the test compound which causes 80% inhibition in the ODC assay.)

Row | SMILES | IC60 [nmols] | IC80 [nmols]
1 | CCO/N=C1\CCC(C)(C)c2ccc(/C=C/c3ccc(C(=O)OCC)cc3)cc21 [Compound A5, ethyl (E)-4-[2-(5,5-dimethyl-5,6-dihydro-8(7H)-anti-(O-ethyl oxime)-naphthalen-2-yl)ethenyl]-benzoate] | 10.3 | 
2 | CCOC(=O)c1ccc(/C=C/c2ccc3c(c2)C(Sc2ccccc2)=CCC3(C)C)cc1 [Compound A16, ethyl (E)-4-[2-(5,6-dihydro-5,5-dimethyl-8-(phenylthio)-naphthalen-2-yl)ethenyl]benzoate] |  | 4.3
3 | CCOC(=O)c1ccc(/C=C/c2ccc3c(c2)C2(CCC3(C)C)SCCCS2)cc1 [Compound A23] | 43.7 | 
4 | CCO/N=C1\CCC(C)(C)c2ccc(/C(C)=C/C=C/C(C)=C/C(=O)OCC)cc21 [Compound C22b, Ethyl 7-[4,4-dimethyl-3,4-dihydro-1(2H)-anti-(O-ethyl oxime)-naphth-7-yl]3,7-dimethyl-hepta-2(E),4(E),6(E)-trienoate] | 10 | 

Now from value to compound:

Row | IC60 [nmols] | IC80 [nmols] | SMILES
5 | 1.9 |  | CCOC(=O)c1ccc(/N=N/c2ccc3c(c2)C(OCOC)CCC3(C)C)cc1 (racemic) [Compound D6, (+/-) ethyl 4-[(5,5-dimethyl-8-(methoxymethyloxy)-5,6,7,8-tetrahydronaphthalen-2-yl)azo]benzoate]
6 |  | 4.3 | CC1(C)CC=C(c2cccs2)c2ccc(C(=O)/C=C/c3ccc(C(=O)O)cc3)cc21 [Compound D34, 4-[3-oxo-3-(7,8-dihydro-5-(2-thienyl)-8.8-dimethyl-2-naphthalenyl) - 1-propenyl]-benzoic acid]
